Test results from patent US20030215352A1, “Method of controlling microbial contamination” (Church & Dwight Co., Inc., priority 2002, published 2003).
Where two headings read alike, the source gives them in different places.

How the values were obtained:
Conditions in all cases: 25° C.
C. albicans = test system: C. albicans
Procedure: (§1) Absorbent products, of 2 in.×2 in., weighing about 1 gram each, and being of identical construction except that 0%, 2%, 4%, 6%, 8%, 10% and 12% (per gram of product) of sodium bicarbonate was incorporated therein are used for this example. […] Two ml of sterile water was added to each product. Each product was then inoculated with 0.1 ml of one of a bacterium or fungus selected from S. aureus (6.9×10^5 CFU/ml), E. coli (5.4×10^5 CFU/ml), P. aeruginosa (6.9×10^5 CFU/ml), and C. albicans (5×10^5 CFU/ml). Each inoculated product was incubated at 25° C. and kept moist in a petri dish. Microbial numbers were determined on days 7 and 14 Microbial numbers were determined by removing the product from the petri dish and placed in a bag with 9 ml of neutralizer broth, mixed and plated on Leethan Agar. These plates were then incubated for 48-72 hours at 30° C. and colonies on the plates were counted.

S. aureus = test system: S. aureus
Procedure: as §1

E. coli = test system: E. coli
Procedure: as §1

P. aeruginosa = test system: P. aeruginosa
Procedure: as §1

[1] = Day 7, 2% sodium bicarbonate in absorbent product
[2] = Day 7, 4% sodium bicarbonate in absorbent product
[3] = Day 7, 6% sodium bicarbonate in absorbent product
[4] = Day 7, 8% sodium bicarbonate in absorbent product
[5] = Day 7, 10% sodium bicarbonate in absorbent product
[6] = Day 7, 12% sodium bicarbonate in absorbent product
[7] = Day 14, 2% sodium bicarbonate in absorbent product
[8] = Day 14, 4% sodium bicarbonate in absorbent product
[9] = Day 14, 6% sodium bicarbonate in absorbent product
[10] = Day 14, 8% sodium bicarbonate in absorbent product
[11] = Day 14, 10% sodium bicarbonate in absorbent product
[12] = Day 14, 12% sodium bicarbonate in absorbent product

Question: How did the “Colony Forming Units/ml C. albicans” value (C. albicans; [1]) turn out when O=C([O-])O.[Na+] [Sodium Bicarbonate, sodium bicarbonate] was run?
Answer: 1,800 Colony Forming Units/ml

Question: And the “Colony Forming Units/ml C. albicans” value (C. albicans; [2])?
Answer: 5 Colony Forming Units/ml

Question: What about the “Colony Forming Units/ml C. albicans” value (C. albicans; [3]) of the same molecule?
Answer: <10 Colony Forming Units/ml

Question: What about the “Colony Forming Units/ml C. albicans” value (C. albicans; [4]) of the same molecule?
Answer: 70 Colony Forming Units/ml

Question: And the “Colony Forming Units/ml C. albicans” value (C. albicans; [5])?
Answer: <10 Colony Forming Units/ml

Question: And the “Colony Forming Units/ml C. albicans” value (C. albicans; [6])?
Answer: 30 Colony Forming Units/ml

Question: And the “Colony Forming Units/ml C. albicans” value (C. albicans; [7])?
Answer: 15 Colony Forming Units/ml

Question: What about the “Colony Forming Units/ml C. albicans” value (C. albicans; [8]) of the same molecule?
Answer: 450 Colony Forming Units/ml

Question: What about the “Colony Forming Units/ml C. albicans” value (C. albicans; [9]) of the same molecule?
Answer: <10 Colony Forming Units/ml

Question: And the “Colony Forming Units/ml C. albicans” value (C. albicans; [10])?
Answer: 3000 Colony Forming Units/ml

Question: What about the “Colony Forming Units/ml C. albicans” value (C. albicans; [11]) of the same molecule?
Answer: <10 Colony Forming Units/ml

Question: And the “Colony Forming Units/ml C. albicans” value (C. albicans; [12])?
Answer: <10 Colony Forming Units/ml

Question: And the “Colony Forming Units/ml S. aureus” value (S. aureus; [1])?
Answer: <10 Colony Forming Units/ml

Question: What about the “Colony Forming Units/ml S. aureus” value (S. aureus; [2]) of the same molecule?
Answer: <10 Colony Forming Units/ml

Question: And the “Colony Forming Units/ml S. aureus” value (S. aureus; [3])?
Answer: <10 Colony Forming Units/ml

Question: What about the “Colony Forming Units/ml S. aureus” value (S. aureus; [4]) of the same molecule?
Answer: <10 Colony Forming Units/ml

Question: And the “Colony Forming Units/ml S. aureus” value (S. aureus; [5])?
Answer: 5 Colony Forming Units/ml

Question: What about the “Colony Forming Units/ml S. aureus” value (S. aureus; [6]) of the same molecule?
Answer: <10 Colony Forming Units/ml

Question: And the “Colony Forming Units/ml S. aureus” value (S. aureus; [7])?
Answer: <10 Colony Forming Units/ml

Question: What about the “Colony Forming Units/ml S. aureus” value (S. aureus; [8]) of the same molecule?
Answer: <10 Colony Forming Units/ml

Question: And the “Colony Forming Units/ml S. aureus” value (S. aureus; [9])?
Answer: <10 Colony Forming Units/ml

Question: What about the “Colony Forming Units/ml S. aureus” value (S. aureus; [10]) of the same molecule?
Answer: 10 Colony Forming Units/ml

Question: And the “Colony Forming Units/ml S. aureus” value (S. aureus; [11])?
Answer: <10 Colony Forming Units/ml

Question: And the “Colony Forming Units/ml S. aureus” value (S. aureus; [12])?
Answer: <10 Colony Forming Units/ml

Question: And the “Colony Forming Units/ml E. coli” value (E. coli; [1])?
Answer: <10 Colony Forming Units/ml

Question: And the “Colony Forming Units/ml E. coli” value (E. coli; [2])?
Answer: <10 Colony Forming Units/ml

Question: And the “Colony Forming Units/ml E. coli” value (E. coli; [3])?
Answer: <10 Colony Forming Units/ml

Question: What about the “Colony Forming Units/ml E. coli” value (E. coli; [4]) of the same molecule?
Answer: <10 Colony Forming Units/ml

Question: And the “Colony Forming Units/ml E. coli” value (E. coli; [5])?
Answer: <10 Colony Forming Units/ml

Question: What about the “Colony Forming Units/ml E. coli” value (E. coli; [6]) of the same molecule?
Answer: <10 Colony Forming Units/ml

Question: And the “Colony Forming Units/ml E. coli” value (E. coli; [7])?
Answer: <10 Colony Forming Units/ml

Question: And the “Colony Forming Units/ml E. coli” value (E. coli; [8])?
Answer: <10 Colony Forming Units/ml

Question: And the “Colony Forming Units/ml E. coli” value (E. coli; [9])?
Answer: <10 Colony Forming Units/ml

Question: What about the “Colony Forming Units/ml E. coli” value (E. coli; [10]) of the same molecule?
Answer: <10 Colony Forming Units/ml

Question: And the “Colony Forming Units/ml E. coli” value (E. coli; [11])?
Answer: <10 Colony Forming Units/ml

Question: What about the “Colony Forming Units/ml E. coli” value (E. coli; [12]) of the same molecule?
Answer: <10 Colony Forming Units/ml

Question: What about the “Colony Forming Units/ml P. aeruginosa” value (P. aeruginosa; [1]) of the same molecule?
Answer: <10 Colony Forming Units/ml

Question: And the “Colony Forming Units/ml P. aeruginosa” value (P. aeruginosa; [2])?
Answer: <10 Colony Forming Units/ml

Question: And the “Colony Forming Units/ml P. aeruginosa” value (P. aeruginosa; [3])?
Answer: 50 Colony Forming Units/ml

Question: And the “Colony Forming Units/ml P. aeruginosa” value (P. aeruginosa; [4])?
Answer: 150 Colony Forming Units/ml

Question: And the “Colony Forming Units/ml P. aeruginosa” value (P. aeruginosa; [5])?
Answer: <10 Colony Forming Units/ml

Question: What about the “Colony Forming Units/ml P. aeruginosa” value (P. aeruginosa; [6]) of the same molecule?
Answer: <10 Colony Forming Units/ml

Question: What about the “Colony Forming Units/ml P. aeruginosa” value (P. aeruginosa; [7]) of the same molecule?
Answer: 15 Colony Forming Units/ml

Question: And the “Colony Forming Units/ml P. aeruginosa” value (P. aeruginosa; [8])?
Answer: <10 Colony Forming Units/ml

Question: What about the “Colony Forming Units/ml P. aeruginosa” value (P. aeruginosa; [9]) of the same molecule?
Answer: <10 Colony Forming Units/ml

Question: What about the “Colony Forming Units/ml P. aeruginosa” value (P. aeruginosa; [10]) of the same molecule?
Answer: <10 Colony Forming Units/ml

Question: And the “Colony Forming Units/ml P. aeruginosa” value (P. aeruginosa; [11])?
Answer: <10 Colony Forming Units/ml

Question: And the “Colony Forming Units/ml P. aeruginosa” value (P. aeruginosa; [12])?
Answer: <10 Colony Forming Units/ml
